# Test results reported in patent US20260374756A1, “HETEROCYCLIC COMPOUNDS AS INHIBITORS OF MONOACYLGLYCEROL LIPASE (MAGL)” (Hoffmann-La Roche Inc., priority 2022, published 2026).
# Molecular target: T1, hMAGL (Homo sapiens, UniProt Q99685)
# T1 sequence (Q99685 1-303): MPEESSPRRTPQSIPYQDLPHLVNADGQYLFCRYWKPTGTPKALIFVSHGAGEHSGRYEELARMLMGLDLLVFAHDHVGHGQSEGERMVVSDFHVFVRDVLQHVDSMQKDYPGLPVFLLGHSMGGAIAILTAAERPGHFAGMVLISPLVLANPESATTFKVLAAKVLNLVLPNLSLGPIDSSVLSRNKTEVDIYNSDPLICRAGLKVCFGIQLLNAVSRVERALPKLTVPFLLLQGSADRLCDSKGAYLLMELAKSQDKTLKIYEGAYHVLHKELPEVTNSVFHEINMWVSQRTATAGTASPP
# Assay: 2-AG assay: MAGL inhibition, hydrolysis of 2-arachidonoylglycerol to arachidonic acid followed by mass spectrometry
# Assay type: biochemical
# Procedure, shortened: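 MAGL preincubated with compound 15 min at RT in 50 mM Tris, 1 mM EDTA, 0.01% Tween-20, 2.5% DMSO; reaction started with 8 μM 2-AG (final), […], 30 min at RT. Quenched with acetonitrile containing d8-arachidonic acid; arachidonic acid quantified by RapidFire SPE-triple quad MS as arachidonic acid/d8 ratio.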
row,SMILES,IC50
1,"Cc1onc(C2CC2)c1CN1CC2(C1)CN(C(=O)N1CC3(CC(n4cnc(C(F)(F)F)n4)C3)C1)C2 [Example 267, [6-[(3-cyclopropyl-5-methyl-isoxazol-4-yl)methyl]-2,6-diazaspiro[3.3]heptan-2-yl]-[6-[3-(trifluoromethyl)-1,2,4-triazol-1-yl]-2-azaspiro[3.3]heptan-2-yl]methanone]",0.0666 µM
2,"O=C(N1CC2(CC(n3cnc(C4CC4)n3)C2)C1)N1CC2(CN(Cc3cnn(C(F)F)c3)C2)C1 [Example 263, [6-(3-cyclopropyl-1,2,4-triazol-1-yl)-2-azaspiro[3.3]heptan-2-yl]-[6-[[1-(difluoromethyl)pyrazol-4-yl]methyl]-2,6-diazaspiro[3.3]heptan-2-yl]methanone]",0.102 µM
3,"Cn1cc(OC2CC3(C2)CN(C(=O)N2CC4(CC(n5cnc(C6(O)CC6)n5)C4)C2)C3)cn1 [Example 88, [6-[3-(1-hydroxycyclopropyl)-1,2,4-triazol-1-yl]-2-azaspiro[3.3]heptan-2-yl]-[6-(1-methylpyrazol-4-yl)oxy-2-azaspiro[3.3]heptan-2-yl]methanone]",1.37 µM
4,"O=C(N1CC2(CC(n3cnc(C(F)(F)F)n3)C2)C1)N1CC2(CN(Cc3ccn(C(F)(F)F)n3)C2)C1 [Example 116, [6-[[1-(trifluoromethyl)pyrazol-3-yl]methyl]-2,6-diazaspiro[3.3]heptan-2-yl]-[6-[3-(trifluoromethyl)-1,2,4-triazol-1-yl]-2-azaspiro[3.3]heptan-2-yl]methanone]",0.161 µM
5,"O=C(N1CC2(CC(n3cnc(C4CC4)n3)C2)C1)N1CC2(CN(Cc3nc(CC(F)(F)F)no3)C2)C1 [Example 207, [6-(3-cyclopropyl-1,2,4-triazol-1-yl)-2-azaspiro[3.3]heptan-2-yl]-[6-[[3-(2,2,2-trifluoroethyl)-1,2,4-oxadiazol-5-yl]methyl]-2,6-diazaspiro[3.3]heptan-2-yl]methanone]",0.0256 µM
6,"Cn1ncc(P(C)(C)=O)c1CN1CC2(C1)CN(C(=O)N1CC3(CC(n4cnc(C5CC5)n4)C3)C1)C2 [Example 228, [6-(3-cyclopropyl-1,2,4-triazol-1-yl)-2-azaspiro[3.3]heptan-2-yl]-[6-[(4-dimethylphosphoryl-2-methyl-pyrazol-3-yl)methyl]-2,6-diazaspiro[3.3]heptan-2-yl]methanone]",0.21 µM
7,"Cn1cc(OC2CC3(C2)CN(C(=O)N2CC4(CC(n5cnc(C6(O)CC6)n5)C4)C2)C3)c(C(F)(F)F)n1 [Example 59, [6-[3-(1-hydroxycyclopropyl)-1,2,4-triazol-1-yl]-2-azaspiro[3.3]heptan-2-yl]-[6-[1-methyl-3-(trifluoromethyl)pyrazol-4-yl]oxy-2-azaspiro[3.3]heptan-2-yl]methanone]",0.0554 µM
8,"O=C(N1CC2(CC(n3cnc(C(F)(F)F)n3)C2)C1)N1CC2(CN(Cc3ccn(CC(F)(F)F)n3)C2)C1 [Example 99, [6-[[1-(2,2,2-trifluoroethyl)pyrazol-3-yl]methyl]-2,6-diazaspiro[3.3]heptan-2-yl]-[6-[3-(trifluoromethyl)-1,2,4-triazol-1-yl]-2-azaspiro[3.3]heptan-2-yl]methanone]",0.386 µM
9,"O=C(N1CC2(CCN(Cc3ncc(C(F)F)s3)CC2)C1)N1CC2(CC(n3cnc(C4(O)CC4)n3)C2)C1 [Example 33, [7-[[5-(difluoromethyl)thiazol-2-yl]methyl]-2,7-diazaspiro[3.5]nonan-2-yl]-[6-[3-(1-hydroxycyclopropyl)-1,2,4-triazol-1-yl]-2-azaspiro[3.3]heptan-2-yl]methanone]",0.0765 µM
10,"CCn1nc(C(F)(F)F)cc1CN1CC2(C1)CN(C(=O)N1CC3(CC(n4cnc(C5(O)CC5)n4)C3)C1)C2 [Example 168, [6-[[2-ethyl-5-(trifluoromethyl)pyrazol-3-yl]methyl]-2,6-diazaspiro[3.3]heptan-2-yl]-[6-[3-(1-hydroxycyclopropyl)-1,2,4-triazol-1-yl]-2-azaspiro[3.3]heptan-2-yl]methanone]",0.0456 µM
11,"Cn1cc(CN2CC3(C2)CN(C(=O)N2CC4(CC(n5cnc(C(F)(F)F)n5)C4)C2)C3)c(C(F)(F)F)n1 [Example 191, [6-[[1-methyl-3-(trifluoromethyl)pyrazol-4-yl]methyl]-2,6-diazaspiro[3.3]heptan-2-yl]-[6-[3-(trifluoromethyl)-1,2,4-triazol-1-yl]-2-azaspiro[3.3]heptan-2-yl]methanone]",0.154 µM
12,"O=C(N1CC2(CC(Cc3cnn(CC(F)(F)F)n3)C2)C1)N1CC2(CC(n3cnc(C4(O)CC4)n3)C2)C1 [Example 202, [6-[3-(1-hydroxycyclopropyl)-1,2,4-triazol-1-yl]-2-azaspiro[3.3]heptan-2-yl]-[6-[[2-(2,2,2-trifluoroethyl)triazol-4-yl]methyl]-2-azaspiro[3.3]heptan-2-yl]methanone]",0.0125 µM

# The next compounds have a lower IC50 than those just listed; values first:
row,IC50,SMILES
1,0.00222 µM,"O=C(N1CC2(CC(Cn3ncnc3C(F)(F)F)C2)C1)N1CC2(CC(n3cnc(C4CC4)n3)C2)C1 [Example 345, [6-(3-cyclopropyl-1,2,4-triazol-1-yl)-2-azaspiro[3.3]heptan-2-yl]-[6-[[5-(trifluoromethyl)-1,2,4-triazol-1-yl]methyl]-2-azaspiro[3.3]heptan-2-yl]methanone]"
2,0.00416 µM,"O=C(N1CC2(CC(Cn3cnc(C(F)(F)F)c3)C2)C1)N1CC2(CC(n3cnc(C4CC4)n3)C2)C1 [Example 40, [6-(3-cyclopropyl-1,2,4-triazol-1-yl)-2-azaspiro[3.3]heptan-2-yl]-[6-[[4-(trifluoromethyl)imidazol-1-yl]methyl]-2-azaspiro[3.3]heptan-2-yl]methanone]"
3,0.00612 µM,"O=C(N1CC2(CC(Cc3nc(C(F)(F)F)c[nH]3)C2)C1)N1CC2(CC(n3cnc(C4(O)CC4)n3)C2)C1 [Example 337, [6-[3-(1-hydroxycyclopropyl)-1,2,4-triazol-1-yl]-2-azaspiro[3.3]heptan-2-yl]-[6-[[4-(trifluoromethyl)-1H-imidazol-2-yl]methyl]-2-azaspiro [3.3]heptan-2-yl]methanone]"
4,0.00305 µM,"Cc1cc(C(F)F)nn1CC1CC2(C1)CN(C(=O)N1CC3(CC(n4cnc(C5(O)CC5)n4)C3)C1)C2 [Example 96, [6-[[3-(difluoromethyl)-5-methyl-pyrazol-1-yl]methyl]-2-azaspiro[3.3]heptan-2-yl]-[6-[3-(1-hydroxycyclopropyl)-1,2,4-triazol-1-yl]-2-azaspiro[3.3]heptan-2-yl]methanone]"
5,0.00085 µM,"O=C(N1CC2(CC(Cc3nsc(C(F)(F)F)n3)C2)C1)N1CC2(CC(n3cnc(C(F)(F)F)n3)C2)C1 [Example 20, [6-[[5-(trifluoromethyl)-1,2,4-thiadiazol-3-yl]methyl]-2-azaspiro[3.3]heptan-2-yl]-[6-[3-(trifluoromethyl)-1,2,4-triazol-1-yl]-2-azaspiro[3.3]heptan-2-yl]methanone]"
6,0.00096 µM,"CC(C)(C)c1coc(CN2CC3(C2)CN(C(=O)N2CC4(CC(n5cnc(C6CC6)n5)C4)C2)C3)n1 [Example 98, [6-[(4-tert-butyloxazol-2-yl)methyl]-2,6-diazaspiro[3.3]heptan-2-yl]-[6-(3-cyclopropyl-1,2,4-triazol-1-yl)-2-azaspiro[3.3]heptan-2-yl]methanone]"
7,0.0004 µM,"O=C(N1CC2(CC(Cn3ccnc3C(F)(F)F)C2)C1)N1CC2(CC(c3cc(C4CC4)n[nH]3)C2)C1 [Example 145, [6-(3-cyclopropyl-1H-pyrazol-5-yl)-2-azaspiro[3.3]heptan-2-yl]-[6-[[2-(trifluoromethyl)imidazol-1-yl]methyl]-2-azaspiro[3.3]heptan-2-yl]methanone]"
8,0.00014 µM,"O=C(N1CC2(CC(Cc3cn(C4CC4)nc3C(F)(F)F)C2)C1)N1CC2(CC(n3cnc(C4CC4)n3)C2)C1 [Example 62, [6-(3-cyclopropyl-1,2,4-triazol-1-yl)-2-azaspiro[3.3]heptan-2-yl]-[6-[[1-cyclopropyl-3-(trifluoromethyl)pyrazol-4-yl]methyl]-2-azaspiro[3.3]heptan-2-yl]methanone]"
9,0.00163 µM,"O=C(N1CC2(CC(Cn3cc(C4(C(F)(F)F)CC4)cn3)C2)C1)N1CC2(CC(n3cnc(C4(O)CC4)n3)C2)C1 [Example 60, [6-[3-(1-hydroxycyclopropyl)-1,2,4-triazol-1-yl]-2-azaspiro[3.3]heptan-2-yl]-[6-[[4-[1-(trifluoromethyl)cyclopropyl]pyrazol-1-yl]methyl]-2-azaspiro[3.3]heptan-2-yl]methanone]"
10,0.00108 µM,"Cc1cc(C2CC2)n(CC2CC3(C2)CN(C(=O)N2CC4(CC(n5cnc(C(F)(F)F)n5)C4)C2)C3)n1 [Example 131, [6-[(5-cyclopropyl-3-methyl-pyrazol-1-yl)methyl]-2-azaspiro[3.3]heptan-2-yl]-[6-[3-(trifluoromethyl)-1,2,4-triazol-1-yl]-2-azaspiro[3.3]heptan-2-yl]methanone]"
11,0.00107 µM,"Cc1cc(C2CC2)nn1CC1CC2(C1)CN(C(=O)N1CC3(CC(n4cnc(C(F)(F)F)n4)C3)C1)C2 [Example 134, [6-[(3-cyclopropyl-5-methyl-pyrazol-1-yl)methyl]-2-azaspiro[3.3]heptan-2-yl]-[6-[3-(trifluoromethyl)-1,2,4-triazol-1-yl]-2-azaspiro[3.3]heptan-2-yl]methanone]"
12,0.0118 µM,"Cn1nc(CC2CC3(C2)CN(C(=O)N2CC4(CC(n5cnc(C6(N)CC6)n5)C4)C2)C3)cc1C(F)(F)F [Example 330, [6-[3-(1-aminocyclopropyl)-1,2,4-triazol-1-yl]-2-azaspiro[3.3]heptan-2-yl]-[6-[[l-methyl-5-(trifluoromethyl)pyrazol-3-yl]methyl]-2-azaspiro[3.3]heptan-2-yl]methanone]"
